{"source": "ChEMBL document CHEMBL5523766", "about": "(J Med Chem, 2024)", "key": {"[1]": {"test": "Cmax in BALB/c mouse at 75 mg/kg,po measured upto 24 hrs by LC-MS/MS analysis", "type": "ADME, organism-based", "details": "in vivo"}, "PC-3": {"test_system": "PC-3", "test": "Antiproliferative activity against human PC-3 cells assessed as inhibition of cell growth incubated for 72 hrs by MTS assay", "type": "functional, cell-based", "details": "PC-3, 72 h"}, "DLD-1": {"test_system": "DLD-1", "test": "Antiproliferative activity against human DLD-1 cells assessed as inhibition of cell growth incubated for 72 hrs by MTS assay", "type": "functional, cell-based", "details": "DLD-1, 72 h"}, "OCI-Ly10": {"test_system": "OCI-Ly10", "test": "Antiproliferative activity against human OCI-Ly10 cells assessed as inhibition of cell growth incubated for 72 hrs by MTS assay", "type": "functional, cell-based", "details": "OCI-Ly10, 72 h"}, "Granta-519 [2]": {"test_system": "Granta-519", "test": "Induction of apoptosis in human Granta-519 cells assessed as viable cells at 2000 nM incubated for 48 hrs by Annexin-V-FITC/propidium iodide staining based flow cytometry (reference value: 92.7 %)", "type": "functional", "details": "read-out: Activity"}, "LoVo": {"test_system": "LoVo", "test": "Antiproliferative activity against human LoVo cells assessed as inhibition of cell growth incubated for 72 hrs by MTS assay", "type": "functional, cell-based"}, "Granta-519 [3]": {"test_system": "Granta-519", "test": "Induction of cell cycle arrest in human Granta-519 cells assessed as accumulation of cells at S phase at 2000 nM incubated for 24 hrs by propidium iodide staining based flow cytometry (reference value: 44.81 %)", "type": "functional"}, "[4]": {"test": "AUCinfinity in BALB/c mouse at 75 mg/kg,po measured upto 24 hrs by LC-MS/MS analysis", "type": "ADME, organism-based", "details": "in vivo"}, "A2780": {"test_system": "A2780", "test": "Antiproliferative activity against human A2780 cells assessed as inhibition of cell growth incubated for 72 hrs by MTS assay", "type": "functional, cell-based", "details": "A2780, 72 h"}, "SUD4": {"test_system": "SUD4", "test": "Antiproliferative activity against human SU-DHL-4 cells assessed as inhibition of cell growth incubated for 72 hrs by MTS assay", "type": "functional, cell-based", "details": "SU-DHL-4, 72 h"}, "[5]": {"test": "Half life in BALB/c mouse at 75 mg/kg,po measured upto 24 hrs by LC-MS/MS analysis", "type": "ADME, organism-based", "details": "in vivo"}, "Granta-519 [6]": {"test_system": "Granta-519", "test": "Antiproliferative activity against human Granta-519 cells assessed as inhibition of cell growth incubated for 72 hrs by MTS assay", "type": "functional, cell-based", "details": "Granta-519, 72 h"}, "CAPAN-1": {"test_system": "CAPAN-1", "test": "Antiproliferative activity against human CAPAN-1 cells assessed as inhibition of cell growth incubated for 72 hrs by MTS assay", "type": "functional, cell-based", "details": "CAPAN-1, 72 h"}, "[7]": {"test": "Tmax in BALB/c mouse at 75 mg/kg,po measured upto 24 hrs by LC-MS/MS analysis", "type": "ADME, organism-based", "details": "in vivo"}, "Granta-519 [8]": {"test_system": "Granta-519", "test": "Induction of apoptosis in human Granta-519 cells assessed as late apoptotic cells at 2000 nM incubated for 48 hrs by Annexin-V-FITC/propidium iodide staining based flow cytometry (reference value: 3.07 %)", "type": "functional"}, "Granta-519 [9]": {"test_system": "Granta-519", "test": "Induction of apoptosis in human Granta-519 cells assessed as necrotic cells at 2000 nM incubated for 48 hrs by Annexin-V-FITC/propidium iodide staining based flow cytometry (reference value: 0.429 %)", "type": "functional"}, "Granta-519 [10]": {"test_system": "Granta-519", "test": "Induction of apoptosis in human Granta-519 cells assessed as early apoptotic cells at 2000 nM incubated for 48 hrs by Annexin-V-FITC/propidium iodide staining based flow cytometry (reference value: 3.75 %)", "type": "functional"}, "Granta-519 [11]": {"test_system": "Granta-519", "test": "Induction of cell cycle arrest in human Granta-519 cells assessed as accumulation of cells at G1 phase at 2000 nM incubated for 24 hrs by propidium iodide staining based flow cytometry (reference value: 45.83 %)", "type": "functional"}, "[12]": {"test": "Brain to plasma ratio in ICR mouse at 50 mg/kg,po measured upto 24 hrs by LC-MS/MS analysis", "type": "ADME, organism-based"}, "NCI-H446": {"test_system": "NCI-H446", "test": "Antiproliferative activity against human NCI-H446 cells assessed as inhibition of cell growth incubated for 72 hrs by MTS assay", "type": "functional, cell-based", "details": "NCI-H446, 72 h"}, "HT-29": {"test_system": "HT-29", "test": "Antiproliferative activity against human HT-29 cells assessed as inhibition of cell growth incubated for 72 hrs by MTS assay", "type": "functional, cell-based", "details": "HT-29, 72 h"}, "HCT-116": {"test_system": "HCT-116", "test": "Antiproliferative activity against human HCT-116 cells assessed as inhibition of cell growth incubated for 72 hrs by MTS assay", "type": "functional, cell-based", "details": "HCT-116, 72 h"}}, "data": [{"compound": "C[C@@H]1COCCN1c1cc(C2([S@](C)(=N)=O)CC2)nc(-c2cc[nH]c3nccc2-3)n1", "note": "[CERALASERTIB]", "values": [{"measurement": "Cmax", "setting": "[1]", "result": 12000, "unit": "ng/mL"}, {"measurement": "IC50", "setting": "PC-3", "result": 11300, "unit": "nM"}, {"measurement": "IC50", "setting": "DLD-1", "result": 5280, "unit": "nM"}, {"measurement": "IC50", "setting": "OCI-Ly10", "result": 520, "unit": "nM"}, {"measurement": "viability at 2 µM", "setting": "Granta-519 [2]", "result": 78, "unit": "%"}, {"measurement": "IC50", "setting": "LoVo", "result": 1140, "unit": "nM"}, {"measurement": "Activity", "setting": "Granta-519 [3]", "result": 67.69, "unit": "%"}, {"measurement": "AUC(0-inf)", "setting": "[4]", "result": 41600, "unit": "ng·h/mL"}, {"measurement": "IC50", "setting": "A2780", "result": 620, "unit": "nM"}, {"measurement": "IC50", "setting": "SUD4", "result": 2260, "unit": "nM"}, {"measurement": "half-life", "setting": "[5]", "result": 1.93, "unit": "h"}, {"measurement": "IC50", "setting": "Granta-519 [6]", "result": 550, "unit": "nM"}, {"measurement": "IC50", "setting": "CAPAN-1", "result": 5540, "unit": "nM"}, {"measurement": "Tmax", "setting": "[7]", "result": 0.25, "unit": "h"}, {"measurement": "Activity", "setting": "Granta-519 [8]", "result": 10.3, "unit": "%"}, {"measurement": "Activity", "setting": "Granta-519 [9]", "result": 3.07, "unit": "%"}, {"measurement": "Activity", "setting": "Granta-519 [10]", "result": 8.66, "unit": "%"}, {"measurement": "Activity", "setting": "Granta-519 [11]", "result": 30.16, "unit": "%"}, {"measurement": "BPR", "setting": "[12]", "result": 6.6, "unit": "%"}, {"measurement": "IC50", "setting": "NCI-H446", "result": 1960, "unit": "nM"}, {"measurement": "IC50", "setting": "HT-29", "result": 2590, "unit": "nM"}, {"measurement": "IC50", "setting": "HCT-116", "result": 1120, "unit": "nM"}]}]}
